We go through three compounds from ChEMBL document CHEMBL4219178, “Synthesis of (aminoalkyl)cycleanine analogues: cytotoxicity, cellular uptake, and apoptosis induction in ovarian cancer cells” (Bioorg Med Chem Lett, 2018).

Activity calls are given as the source filed them. No cut-off for these calls is given here.

Data set [1] concerns OVCAR-8. Description: Antiproliferative activity against human OVCAR8 cells after 72 hrs by SRB assay. In kind it is functional, cell-based. Particulars: OVCAR-8, 72 h. In general terms: The SRB assay estimates cell density from bound dye.
For data set [2], the system named is A2780. The data set is described as follows: Antiproliferative activity against human A2780 cells after 72 hrs by SRB assay. Type of data set: functional, cell-based. The following applies: A2780, 72 h.
Data set [3] concerns IGROV-1. Description: Antiproliferative activity against human IGROV1 cells after 72 hrs by SRB assay. In kind it is functional, cell-based. The following applies: IGROV-1, 72 h.
A short description of data set [4]: Cytotoxicity against human ovarian epithelial cells assessed as reduction in cell viability after 72 hrs by SRB assay. In kind it is cell-based.
Data set [5] can be described thus: Drug uptake in human OVCAR8 cells at 20 uM after 48 hrs by Alexa 488 azide dye-based confocal fluorescence microscopy. Particulars: ovcar-8, 48 h. In kind it is ADME, cell-based.
Data set [6] can be described thus: Selectivity index, ratio of IC50 for human ovarian epithelial cells to IC50 for human OVCAR8 cells. Type of data set: toxicity. The following applies: human ovarian epithelial cells versus OVCAR8 cells, read-out: Ratio IC50.
The nature of data set [7]: Selectivity index, ratio of IC50 for human ovarian epithelial cells to IC50 for human A2780 cells. In kind it is toxicity. Particulars: human ovarian epithelial cells versus A2780 cells, read-out: Ratio IC50.
A short description of data set [8]: Selectivity index, ratio of IC50 for human ovarian epithelial cells to IC50 for human IGROV1 cells. In kind it is toxicity. The following applies: human ovarian epithelial cells versus IGROV1 cells, read-out: Ratio IC50.
Data set [9] concerns OVCAR-8. Description: Induction of apoptosis in human OVCAR8 cells assessed as cell shrinkage at 10 to 20 uM incubated for 24 to 48 hrs by phase contrast light microscopy. In kind it is functional, cell-based.
Data set [10] concerns OVCAR-8. Description: Induction of apoptosis in human OVCAR8 cells assessed as cell detachment at 10 to 20 uM incubated for 24 to 48 hrs by phase contrast light microscopy. Type of data set: functional, cell-based.
Data set [11] relates to OVCAR-8. Description: Induction of apoptosis in human OVCAR8 cells assessed as nucleus condensation at 10 to 20 uM incubated for 24 to 48 hrs by phase contrast light microscopy. In kind it is functional, cell-based.
Data set [12] concerns A2780. Description: Induction of apoptosis in human A2780 cells assessed as induction of caspase 3/7 activity at 20 uM incubated for 48 hrs by caspase-Glo 3/7 reagent based luminescence assay. Type of data set: functional, cell-based.
The test system of data set [13] is OVCAR-8. The data set is described as follows: Induction of apoptosis in human OVCAR8 cells assessed as induction of caspase 3/7 activity at 20 uM incubated for 48 hrs by caspase-Glo 3/7 reagent based luminescence assay. In kind it is functional, cell-based.
The subject of data set [14] is IGROV-1. Description: Induction of apoptosis in human IGROV1 cells assessed as induction of caspase 3/7 activity at 20 uM incubated for 48 hrs by caspase-Glo 3/7 reagent based luminescence assay. Type of data set: functional, cell-based.
Data set [15] deals with OVCAR-8. The data set is described as follows: Induction of apoptosis in human OVCAR8 cells assessed as induction of PARP-1 cleavage at 20 uM after 48 hrs by Western blot. In kind it is functional, cell-based.
Data set [16] has as its system OVCAR-8. The data set is described as follows: Induction of apoptosis in human OVCAR8 cells assessed as early apoptotic cells at 20 uM after 48 hrs by Annexin V-FITC/propidium iodide based flow cytometry (reference value: 4%). Type of data set: functional.
Data set [17] relates to OVCAR-8. Description: Induction of apoptosis in human OVCAR8 cells assessed as late apoptotic cells at 20 uM after 48 hrs by Annexin V-FITC/propidium iodide based flow cytometry (reference value: 5%). Type of data set: functional. On the technique in general: Flow cytometry measures light scatter and fluorescence of single cells or particles in a stream.
Data set [18] has as its system OVCAR-8. Description: Induction of apoptosis in human OVCAR8 cells assessed as viable cells at 20 uM after 48 hrs by Annexin V-FITC/propidium iodide based flow cytometry (reference value: 84%). In kind it is functional. The following applies: OVCAR-8, 48 h, read-out: Activity.
Data set [19] deals with OVCAR-8. Description: Cell cycle arrest in human OVCAR8 cells assessed as accumulation at subG1 phase at 20 uM after 48 hrs by propidium iodide based flow cytometry. Type of data set: functional.
For data set [20], the system named is OVCAR-8. The data set is described as follows: Cell cycle arrest in human OVCAR8 cells assessed as decrease in G0/G1 phase at 20 uM after 48 hrs by propidium iodide based flow cytometry. Type of data set: functional.

`COc1cc2c3c(c1OC)Oc1ccc(cc1)C[C@@H]1c4c(cc(OC)c(OC)c4Oc4ccc(cc4)C[C@H]3N(C)CC2)CCN1C`: the IC50 came out at 10 µM in the data set on OVCAR-8 [1], 7.6 µM in the data set with A2780 [2], 14 µM with IGROV-1 [3] and 35 µM in [4]. In [5], the Drug uptake result is listed as “Not Active”. Moreover, the selectivity ratio turned out to be 3 in data set [6], 5 in [7] and 3 in [8].
Regarding `COc1cc2c3c(c1OC)Oc1ccc(cc1)C[C@@H]1c4c(c(CN(C)C)c(OC)c(OC)c4Oc4ccc(cc4)C[C@H]3N(C)CC2)CCN1C`, the IC50 with OVCAR-8 [1] was 5.2 µM; in the data set with A2780 [2] it was 3.6 µM; in the data set with IGROV-1 [3], 4.4 µM; in data set [4], 10 µM. The result with OVCAR-8 [9], in the data set on OVCAR-8 [10], in the data set with OVCAR-8 [11], in the data set on A2780 [12], with OVCAR-8 [13] and in the data set with IGROV-1 [14] was Active. For the same compound, the outcome in the data set on OVCAR-8 [15], in the data set on OVCAR-8 [19] and in the data set on OVCAR-8 [20] was Active. Also, the results for the Activity with OVCAR-8 [16] and with OVCAR-8 [17] were 13% and 25%, respectively. In addition, the viability at 20 µM with OVCAR-8 [18] is 51%. The selectivity ratio in [6] was determined as 2; in [7], 3; in data set [8] it was 2.
Turning to `C#CCNCc1c2c3c(c(OC)c1OC)Oc1ccc(cc1)C[C@@H]1c4c(cc(OC)c(OC)c4Oc4ccc(cc4)C[C@H]3N(C)CC2)CCN1C`, the IC50 in the data set with OVCAR-8 [1] was determined as 5.6 µM; in the data set on A2780 [2], 6.3 µM; in the data set with IGROV-1 [3], 6.1 µM; in data set [4], 32 µM. The result with OVCAR-8 [9], with OVCAR-8 [10], in the data set on OVCAR-8 [11], with A2780 [12], with OVCAR-8 [13] and in the data set with IGROV-1 [14] was Active. Further, the outcome in the data set with OVCAR-8 [15], with OVCAR-8 [19] and in the data set with OVCAR-8 [20] was Active. Moreover, the figures for the Activity in the data set with OVCAR-8 [16] and in the data set on OVCAR-8 [17] were 11% and 38%, respectively. Further, in the data set on OVCAR-8 [18], the viability at 20 µM stood at 50%. Moreover, the Drug uptake entry in [5] is listed as “Active”. The selectivity ratio was determined as 6 in data set [6], 5 in data set [7] and 5 in data set [8].

By IC50 is commonly meant the concentration at which inhibition is half-maximal.
